Source: ChEMBL document CHEMBL1156829 (Proc Natl Acad Sci U S A, 2008)

How the values were obtained:
[1] = test system: Plasmodium falciparum; test: NOVARTIS: Inhibition of Plasmodium falciparum 3D7 (drug-susceptible) proliferation in erythrocyte-based infection assay; assay type: functional, organism-based; settings: Plasmodium falciparum, 3D7
[2] = test system: Plasmodium falciparum; test: NOVARTIS: Inhibition of Plasmodium falciparum W2 (drug-resistant) proliferation in erythrocyte-based infection assay; assay type: functional, organism-based; settings: Plasmodium falciparum, W2; read-out: EC50
[3] = NOVARTIS: Cytotoxicity against human hepatocellular carcinoma cell line (Huh7); assay type: toxicity, cell-based, Huh-7; settings: Huh7 cells (hepatocellular carcinoma cell line)

SMILES: Nc1ccc(C(=O)NN=Cc2cccc([N+](=O)[O-])c2)cc1
- EC50 [1]: 298 nM
- EC50 [2]: 112 nM
- CC50 [3]: > 10 µM

SMILES: CCOc1ccc2[nH]c(=O)c(CN(CCCN3CCOCC3)C(=S)NCCCN(CC)CC)cc2c1
- EC50 [1]: 2610 nM
- EC50 [2]: 679 nM
- CC50 [3]: > 100 µM

SMILES: O=C1[C@H]2Cc3c([nH]c4ccccc34)C(CCc3ccccc3)N2C(=O)CN1CCc1c[nH]c2ccccc12 (stereo not given in full)
- EC50 [1]: 1350 nM
- EC50 [2]: 208 nM
- CC50 [3]: > 10 µM

SMILES: OCCNc1nc(Nc2ccccc2O)nc2ccccc12
- EC50 [1]: 1860 nM
- EC50 [2]: 2470 nM
- CC50 [3]: 58.7 µM

SMILES: O=C(NC1CC1)C1CCN(S(=O)(=O)c2ccc(Cl)cc2)CC1
- EC50 [1]: 5000 nM
- EC50 [2]: 4720 nM
- CC50 [3]: > 100 µM

SMILES: COc1cc(NC(C)CCCN(Cc2ccc(F)cc2)C(=O)CCc2ccccc2)c2ncccc2c1 (stereo not given)
- EC50 [1]: 1400 nM
- EC50 [2]: 361 nM
- CC50 [3]: 4.62 µM

SMILES: CCOc1ccc(S(=O)(=O)c2cn(Cc3ccccc3C)c3ccc(OC)cc3c2=O)cc1
- EC50 [1]: 6270 nM
- EC50 [2]: 3860 nM
- CC50 [3]: > 100 µM

SMILES: c1cncc(CCNc2nccn3c(-c4cccc5ccccc45)cnc23)c1
- EC50 [1]: 1240 nM
- EC50 [2]: > 1250 nM
- CC50 [3]: > 10 µM

SMILES: O=C(Nc1ccc(Oc2ccc(OC(F)(F)F)cc2)cc1)C1CC1
- EC50 [1]: 1670 nM
- EC50 [2]: 2770 nM
- CC50 [3]: > 100 µM

SMILES: COCCN(CC(=O)NCc1ccc(OC2CCN(CC(c3ccccc3)c3ccccc3)CC2)cc1)S(=O)(=O)c1ccccc1
- EC50 [1]: 1000 nM
- EC50 [2]: 526 nM
- CC50 [3]: > 10 µM

SMILES: CC(=O)Nc1ccc(NC(=O)C(C)(C)CCl)cc1
- EC50 [1]: > 1000 nM
- EC50 [2]: 62.1 nM
- CC50 [3]: > 10.5 µM

SMILES: Cc1ccn2c(NC(C)(C)CC(C)(C)C)c(-c3ccccc3OC(=O)c3ccc(Br)cc3)nc2c1
- EC50 [1]: 740 nM
- EC50 [2]: 148 nM
- CC50 [3]: 75 µM

SMILES: CCOC(=O)CN(N=O)C1=C(N2CC2)C(=O)c2ccccc2C1=O
- EC50 [1]: 206 nM
- EC50 [2]: 3850 nM
- CC50 [3]: 25.4 µM

SMILES: Cc1ccc(C)c(Oc2c(C(F)(F)F)oc3c(CN4CCN(C)CC4)c(O)ccc3c2=O)c1
- EC50 [1]: 832 nM
- EC50 [2]: 185 nM
- CC50 [3]: > 100 µM

SMILES: CCCN1CCC(N2C[C@@H](NCc3ccc4c(c3)c3ccccc3n4CC)C[C@H]2C(=O)NCC)CC1
- EC50 [1]: > 252 nM
- EC50 [2]: 323 nM
- CC50 [3]: > 6.38 µM

SMILES: O=C(Nc1ccc2c(c1)OCO2)c1cc2cc(C3(O)CCN(CCCc4ccccc4)CC3)ccc2o1
- EC50 [1]: 912 nM
- EC50 [2]: 1180 nM
- CC50 [3]: 6.32 µM

SMILES: Cc1cn2c3ccccc3n(CCN3CCOCC3)c2n1
- EC50 [1]: > 2480 nM
- EC50 [2]: > 12500 nM
- CC50 [3]: > 100 µM

SMILES: CCCCN(CCCC)CC(O)c1cc(Cl)cc2c1-c1ccc(Cl)cc1/C2=C/c1ccc(Cl)cc1 (stereo not given) [LUMEFANTRINE]
- EC50 [1]: 777 nM
- EC50 [2]: 518 nM
- CC50 [3]: > 10 µM

SMILES: COc1cc(/C=C/C(=O)Nc2ccc3nc(N4CCN(c5ncccn5)CC4)cc(C)c3c2)cc(OC)c1OC
- EC50 [1]: 1330 nM
- EC50 [2]: 739 nM
- CC50 [3]: > 10 µM

SMILES: CCOC(=O)c1sc2ncnc(NCc3ccc(F)cc3)c2c1C
- EC50 [1]: > 12500 nM
- EC50 [2]: > 3630 nM
- CC50 [3]: > 100 µM

SMILES: CC[n+]1c(C=C2C=CN(c3ccc(Cl)cc3)C=C2)ccc2ccccc21
- EC50 [1]: 725 nM
- EC50 [2]: 1090 nM
- CC50 [3]: > 10 µM

SMILES: CC(C)CC(N)C(=O)N1CCn2c(nc(-c3ccccc3)c2Nc2ccc3c(c2)OCO3)C1 (stereo not given)
- EC50 [1]: 119 nM
- EC50 [2]: 122 nM
- CC50 [3]: > 79.5 µM

SMILES: COc1ccc(OC)c(-c2csc(N(CCCN(C)C)C(=O)Cc3ccccc3)n2)c1
- EC50 [1]: 4050 nM
- EC50 [2]: 3430 nM
- CC50 [3]: 17.7 µM

SMILES: COc1ccc(Nc2nc(NN=Cc3cc(Br)c(O)cc3O)nc(Nc3ccc([N+](=O)[O-])cc3)n2)cc1
- EC50 [1]: 75 nM
- EC50 [2]: 198 nM
- CC50 [3]: 9.58 µM

SMILES: COc1cc2nc(NC(=N)N)nc(C)c2cc1OC
- EC50 [1]: 24.4 nM
- EC50 [2]: 44.1 nM
- CC50 [3]: > 10 µM

SMILES: CC(C)(C)c1ccc(/C=C/C(=O)NCc2ccco2)cc1
- EC50 [1]: 792 nM
- EC50 [2]: 639 nM
- CC50 [3]: > 10 µM

SMILES: COc1ccc(OC)c(-c2ccc(O)c(CNCC3(O)CCCCC3)c2)c1
- EC50 [1]: 818 nM
- EC50 [2]: 762 nM
- CC50 [3]: > 10 µM

SMILES: Cc1sc2c(c1C)CN(Cc1ccco1)CN2C(=O)c1ccco1
- EC50 [1]: > 12500 nM
- EC50 [2]: > 6910 nM
- CC50 [3]: > 100 µM

SMILES: CCOC(=O)c1sc(-c2cnccc2C(F)(F)F)nc1C
- EC50 [1]: > 912 nM
- EC50 [2]: 172 nM
- CC50 [3]: > 10 µM

SMILES: COc1c([N+](=O)[O-])cc2c(c1Br)OC1(C=C2)N(C)c2ccccc2C1(C)C (stereo not given)
- EC50 [1]: 1740 nM
- EC50 [2]: > 1570 nM
- CC50 [3]: > 10 µM

SMILES: Oc1ccc(-c2ccnc3cc(Cl)ccc23)cc1CNCCCn1ccnc1
- EC50 [1]: 167 nM
- EC50 [2]: 403 nM
- CC50 [3]: > 10 µM

SMILES: Fc1ccc(Nc2nc(NCc3ccco3)c3ccccc3n2)cc1
- EC50 [1]: 191 nM
- EC50 [2]: 101 nM
- CC50 [3]: 12.3 µM

SMILES: O=C(CSc1ccc(Cl)cc1)NN=C1C(=O)Nc2ccccc21
- EC50 [1]: > 12500 nM
- EC50 [2]: > 1990 nM
- CC50 [3]: > 100 µM

SMILES: CCN(CC)Cc1ccc2c(NC(=O)c3ccc(C)s3)c(C(=O)OC)sc2n1
- EC50 [1]: 1230 nM
- EC50 [2]: 1190 nM
- CC50 [3]: 1.24 µM

SMILES: O=C(Nc1ccc(-n2cnnn2)cc1)C1CCN(Cc2cc3ccccc3o2)CC1
- EC50 [1]: 198 nM
- EC50 [2]: 416 nM
- CC50 [3]: > 61.9 µM

SMILES: CC(=O)NC1=NN(C(C)=O)C(C)(c2ccc([N+](=O)[O-])cc2)S1 (stereo not given)
- EC50 [1]: 497 nM
- EC50 [2]: 132 nM
- CC50 [3]: > 100 µM

SMILES: FC(F)(F)c1cccc(CNC2CCN(CCc3ccccc3)CC2)c1
- EC50 [1]: 174 nM
- EC50 [2]: 487 nM
- CC50 [3]: 7.39 µM

SMILES: Cc1oc2c(c1C(=O)NCCCn1ccnc1)C(=O)c1ccccc1C2=O
- EC50 [1]: 90.4 nM
- EC50 [2]: 39.1 nM
- CC50 [3]: 0.27 µM

SMILES: COc1cc(NC(=O)Cn2c3ccccc3c(=O)c3ccccc32)cc(OC)c1OC
- EC50 [1]: 2730 nM
- EC50 [2]: 816 nM
- CC50 [3]: > 100 µM

SMILES: COCCOC(=O)C1=C(C)NC2=C(C(=O)CC(c3ccc(OC)c(OC)c3)C2)C1c1ccccc1Cl (stereo not given)
- EC50 [1]: 50.4 nM
- EC50 [2]: 13.2 nM
- CC50 [3]: > 100 µM

SMILES: O=C(NC(C(=O)c1ccccc1)N1CCCCC1)c1ccco1 (stereo not given)
- EC50 [1]: > 831 nM
- EC50 [2]: > 1760 nM
- CC50 [3]: > 10 µM

SMILES: CCc1cc(C(=O)OC)c(NC(=S)NC(C)c2ccncc2)s1 (stereo not given)
- EC50 [1]: 4550 nM
- EC50 [2]: 5160 nM
- CC50 [3]: > 86.9 µM

SMILES: O=C(NCc1ccccc1C(F)(F)F)C1CC(O)CN1C(=O)Nc1ccccc1 (stereo not given)
- EC50 [1]: > 1250 nM
- EC50 [2]: 152 nM
- CC50 [3]: > 10 µM

SMILES: Clc1cccc(CSc2nc(Nc3ccc4c(c3)OCO4)c3ccccc3n2)c1
- EC50 [1]: 1170 nM
- EC50 [2]: 2790 nM
- CC50 [3]: > 82.9 µM

SMILES: Cc1ccnc(Nc2nc(-c3c(C)nc4sccn34)cs2)c1
- EC50 [1]: 1500 nM
- EC50 [2]: 753 nM
- CC50 [3]: > 73.5 µM

SMILES: Oc1c(C(Nc2ccccn2)c2ccc(Br)cc2)ccc2cccnc12 (stereo not given)
- EC50 [1]: 358 nM
- EC50 [2]: 284 nM
- CC50 [3]: > 100 µM

SMILES: CCC(c1nc2ccccc2c(=O)n1CC)N1CCN(C(=O)Nc2ccccc2C(F)(F)F)CC1 (stereo not given)
- EC50 [1]: 1300 nM
- EC50 [2]: > 1250 nM
- CC50 [3]: > 10 µM

SMILES: O=C(O)C(Cc1ccc([N+](=O)[O-])cc1)NS(=O)(=O)c1ccc(OC(F)(F)F)cc1 (stereo not given)
- EC50 [1]: 580 nM
- EC50 [2]: 3.29 nM
- CC50 [3]: > 10 µM

SMILES: CC(C)N(CC(=O)Nc1cc(C(C)(C)C)nn1-c1ccc(Cl)c(Cl)c1)C(=O)c1ccc(C(C)(C)C)cc1
- EC50 [1]: 6030 nM
- EC50 [2]: 7330 nM
- CC50 [3]: > 100 µM

SMILES: Cc1ccc(C)c(N2CCN(CCCNC(=O)c3ccc(CSc4nc5cnccc5[nH]4)cc3)CC2)c1
- EC50 [1]: 644 nM
- EC50 [2]: 190 nM
- CC50 [3]: 23 µM
